What was measured:
[1] = In vitro skin permeability assay, vertical Franz diffusion cell; type: in vitro ADME; settings: human epidermis from different donors, 32° C., N=4 per donor
Experimental: A skin permeability assay was performed using a vertical Franz diffusion cell having a diffusion area of 0.64 cm^2 and a volume of 7.5 mL. The assay was conducted at 32° C. with continuous stirring. Heat-separated human cadaver epidermis was used in the assay, the epidermis being stored at −20° C. after the heat-stripping procedure. The human epidermis was thawed prior to being mounted on the diffusion cell. Treprostinil was applied on the skin, and the diffusion cell was closed by screw-cap. At various time intervals, whole medium or receptor medium was replaced by fresh medium. Part of the collected medium was used to calculate the cumulative skin permeability of treprostinil at 72 hours. The skin permeability of treprostinil was evaluated using human epidermis from different donors. N=4 replicates were performed for treprostinil tested on human epidermis from a particular donor.

[2] = Skin irritation study of treprostinil reservoir-type transdermal patch, Draize scale; type: in vivo, Göttingen Minipigs; parameters: key to Edema score: 0: No edema; 1: Very slight edema (barely perceptible); 2: Slight edema (edges of area well defined by definite raising); 3: Moderate edema (raised about 1 mm); 4: Severe edema (raised >1 mm and extending beyond area of exposure); key to Erythema score: 0: No erythema; 1: Very slight erythema (barely perceptible); 2: Well-defined erythema; 3: Moderate to severe erythema; 4: Severe erythema (beet redness) to slight eschar formation (injuries in depth); settings: for Edema score / Erythema score: 10 mg patch
Experimental: The pig is frequently used in studies involving dermal or transdermal administration of a drug because the skin of the pig is very similar to human skin. Skin irritation following transdermal administration of treprostinil from a reservoir-type transdermal patch was assessed in Göttingen Minipigs® (Marshall BioResources, North Rose, New York). The treprostinil-containing reservoir transdermal patch was a 32 cm^2 circular patch with a 6 cm^2 gel-sealed area and a 26 cm^2 peripheral skin-adhesive area. The placebo reservoir transdermal patch was a 39 cm^2 oval patch with a 12 cm^2 gel-sealed area and a 27 cm^2 peripheral skin-adhesive area. The reservoir of the patches comprised a gel composed of hydroxypropyl cellulose and containing ethanol, isopropyl myristate and 10 mg treprostinil or no active agent for the placebo patch. The reservoir was packaged by heat seal between a backing layer composed of metalized polyester/ethylene-vinyl acetate and a semi-permeable microporous membrane composed of polyethylene. A transparent release liner that protected the gel reservoir area and the peripheral adhesive area was peeled off immediately prior to patch application. The patches had the structure of the patch depicted in FIG. 1. To facilitate patch application (dosing) and to ensure animal safety during the dosing procedure, the minipigs were sedated with the anesthetic Telazol, if necessary, via intramuscular injection at an initial dose of 3-6 mg/kg. Any use of Telazol is indicated in the study data. Both the treprostinil-containing and placebo transdermal patches were applied to the dorsal surface of each of three female Göttingen Minipigs® weighing about 15-25 kg and were left in place for 24 hr. The dosing sites (the entire flank on both sides of the dorsal midline, caudal to the scapula) were carefully clipped with an electric clipper on the day prior to application of the patches and then were carefully washed with room temperature (RT) saline to remove dirt and debris. The prepared area was large enough to accommodate several patches. The dosing sites then were carefully shaved smooth with a razor while not causing any nick or cut. RT saline, but no shaving cream, could be used to assist shaving. The dosing sites were then wrapped with bandaging that was secured with a non-irritating, semi-occlusive tape (e.g., Elastikon tape). The minipigs were then fitted with a jacket. On the day of application of the patches, the jacket and wrapping were removed from the minipigs. The dosing sites were visually inspected to confirm the absence of any abrasion or obvious dermal pathology, and were gently cleaned with an isopropanol wipe and were then allowed to air-dry for at least 5 min. The patches were applied to areas of the skin without any abrasion or obvious dermal pathology by applying firm finger pressure to the peripheral adhesive area of the patches to ensure firm adherence of the peripheral area to the skin. To prevent detachment of the patches, TegadermTM dressing (or an equivalent transparent adhesive dressing, such as PatchProtectTM dressing) was applied over the patches, extending at least 2 inches beyond the edges of the patches and adhering to the peripheral area of the patches and to the skin surrounding the patches. The sites of patch application were wrapped with gauze or […] bandaging (or equivalent) that was secured with a non-irritating, semi-occlusive tape (e.g., Elastikon tape). The minipigs were then fitted with a jacket to prevent patch disturbance. The patches were kept in place at the dosing sites for 24 hr. […] Photographs of the sites of patch application were taken just prior to patch removal, following patch removal, and at 2 (±15 min), 24 (±1 hr), 48, 72, 96, 120, 144 and 168 hours after patch removal. The following scores are based on the Draize scale for scoring skin irritation [J. Draize et al., J. Pharmacol. Exp. Ther., 82:377-390 (1944)]. [table] [table]

[3] = Pharmacokinetics of transdermally delivered treprostinil from reservoir-type patch; settings: Göttingen, minipig, in vivo, four patches, total 160 mg treprostinil, in place 72 hr, two male minipigs
Description: Pharmacokinetics (PK) following transdermal administration of treprostinil from a reservoir-type transdermal patch was studied in Göttingen Minipigs® (Marshall BioResources). The treprostinil-containing reservoir transdermal patch was a 39 cm^2 oval patch with a 12 cm^2 gel-sealed area and a 27 cm^2 peripheral skin-adhesive area. […] Naïve male Göttingen Minipigs® about 6 months of age at receipt and weighing about 23 kg at patch application were used in the PK study. To facilitate application of the transdermal patch, the minipigs were sedated with Telazol at 3 mg/kg via intramuscular injection. Prior to patch application the dosing sites on the minipigs were prepared similarly as described in Example 2, and patch application was performed similarly as described in Example 2 except that bandaging was reapplied to the sites of patch application once a day. Four transdermal patches containing a total of 160 mg treprostinil were applied at the same time to the dorsal surface of each of two minipigs and were left in place for 72 hr. Blood samples were collected within 1 hr prior to application of the patches; at 3, 6, 12, 24, 48 and 72 hours after application of the patches; and at 0.167, 0.5, 1, 2, 4 and 6 hours after removal of the patches.

[4] = cited from earlier work
[5] = cited from earlier work; remark: listed apart in the source
[6] = minipig 601, 2 hr post patch removal, 24 hr
[7] = minipig 601, 24 hr post patch removal, 24 hr
[8] = minipig 601, 48 hr post patch removal, 24 hr
[9] = minipig 601, 72 hr post patch removal, 24 hr
[10] = minipig 601, 96 hr post patch removal, 24 hr
[11] = minipig 601, 120 hr post patch removal, 24 hr
[12] = minipig 601, before patch application
[13] = minipig 602, 2 hr post patch removal, 24 hr
[14] = minipig 602, 24 hr post patch removal, 24 hr
[15] = minipig 602, 48 hr post patch removal, 24 hr
[16] = minipig 602, 72 hr post patch removal, 24 hr
[17] = minipig 602, 96 hr post patch removal, 24 hr
[18] = minipig 602, 120 hr post patch removal, 24 hr
[19] = minipig 602, before patch application
[20] = minipig 603, 2 hr post patch removal, 24 hr
[21] = minipig 603, 24 hr post patch removal, 24 hr
[22] = minipig 603, 48 hr post patch removal, 24 hr
[23] = minipig 603, 72 hr post patch removal, 24 hr
[24] = minipig 603, 96 hr post patch removal, 24 hr
[25] = minipig 603, 120 hr post patch removal, 24 hr
[26] = minipig 603, before patch application

CCCCC[C@H](O)CC[C@@H]1[C@H]2Cc3cccc(OCC(=O)O)c3C[C@H]2C[C@H]1O [Treprostinil]
cumulative skin permeability at 72 hours [1]: high
Edema score [2, 6]: 0
Erythema score [2, 6]: 1
Edema score [2, 7]: 0
Erythema score [2, 7]: 1
Edema score [2, 8]: 0
Erythema score [2, 8]: 1
Edema score [2, 9]: 0
Erythema score [2, 9]: 0
Edema score [2, 10]: 0
Erythema score [2, 10]: 0
Edema score [2, 11]: 0
Erythema score [2, 11]: 0
Edema score [2, 12]: 0
Erythema score [2, 12]: 0
Edema score [2, 13]: 0
Erythema score [2, 13]: 1
Edema score [2, 14]: 0
Erythema score [2, 14]: 1
Edema score [2, 15]: 0
Erythema score [2, 15]: 0
Edema score [2, 16]: 0
Erythema score [2, 16]: 0
Edema score [2, 17]: 0
Erythema score [2, 17]: 0
Edema score [2, 18]: 0
Erythema score [2, 18]: 0
Edema score [2, 19]: 0
Erythema score [2, 19]: 0
Edema score [2, 20]: 0
Erythema score [2, 20]: 2
Edema score [2, 21]: 0
Erythema score [2, 21]: 2
Edema score [2, 22]: 0
Erythema score [2, 22]: 0
Edema score [2, 23]: 0
Erythema score [2, 23]: 0
Edema score [2, 24]: 0
Erythema score [2, 24]: 0
Edema score [2, 25]: 0
Erythema score [2, 25]: 0
Edema score [2, 26]: 0
Erythema score [2, 26]: 0
skin irritation (summary) ([2]; reservoir patch 10 mg treprostinil with isopropyl myristate and ethanol, in place 24 hr, three female minipigs): did not cause significant skin irritation
concentration at 72 hr ([3]; other: transdermal (reservoir-type patch), read-out: C72 hr): 0.0024 to 0.0049 µg/mL
Cmax ([3]; topical or ocular): 0.0208 to 0.0276 µg/mL
Tmax ([3]; topical or ocular): 6 h
AUC(0-t) ([3]; topical or ocular, read-out: AUC0-72): 0.429 to 0.946 µg·h/mL
half-life ([3]; topical or ocular, read-out: half-life (T1/2) during treatment): 28 to 35 h
systemic half-life ([4]; free acid, due to significant metabolism): very short
absolute oral bioavailability ([4]; treprostinil as the free acid, oral): less than 10%
peak-to-trough ratio of plasma concentrations ([5]; administered by inhalation): large
PAH patients who cannot take inhaled treprostinil due to irritation to the lungs ([5]; inhalation): about 50%

Reference: US20250205173A1, “DERMAL AND TRANSDERMAL ADMINISTRATION OF TREPROSTINIL AND SALTS THEREOF” (CORSAIR PHARMA, INC., priority 2019, published 2025)
